{"source": "patent US5686486A", "about": "“4-hydroxy-benzopyran-2-ones and 4-hydroxy-cycloalkyl[b]pyran-2-ones useful to treat retroviral infections” (priority 1995, dated 1997)", "key": {"HIV-1": {"tested_on": "HIV-1", "conditions": "single dose; cited from earlier work"}, "HIV": {"tested_on": "HIV", "conditions": "cited from earlier work"}, "HIV-1 protease [1]": {"biological_target": "T1, HIV-1 protease (Human immunodeficiency virus type 1 group M subtype B, UniProt P04585)", "test": "biochemical", "conditions": "for pIC50: HIV-1 Protease IC50; for inhibition at 0.098 µM: read-out: HIV-1 Protease % Inhib, dose 0.098 uM; for inhibition at 0.78 µM: read-out: HIV-1 Protease % Inhib, dose 0.780 uM; for inhibition at 1.56 µM: read-out: HIV-1 Protease % Inhib, dose 1.560 uM; for inhibition at 12.5 µM: read-out: HIV-1 Protease % Inhib, dose 12.500 uM; for inhibition at 25 µM: read-out: HIV-1 Protease % Inhib, dose 25.000 uM; for inhibition at 50 µM: read-out: HIV-1 Protease % Inhib, dose 50.000 uM; for inhibition at 100 µM: read-out: HIV-1 Protease % Inhib, dose 100.000 uM; for inhibition at 0.37 µM: read-out: HIV-1 Protease % Inhib, dose 0.370 uM; for inhibition at 1.1 µM: read-out: HIV-1 Protease % Inhib, dose 1.100 uM; for inhibition at 30 µM: read-out: HIV-1 Protease % Inhib, dose 30.000 uM", "procedure,_shortened": "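Biotinylated, FITC-labeled peptide substrate (20 μl of 0.2 μM) incubated with HIV-1 protease (10 μl of 0.1 μM) and compound in 0.1 M sodium acetate pH 5.5, 1.0 M NaCl, 0.05% NP-40, 1 h, room temperature, dark. Streptavidin beads then capture uncleaved substrate; filtered labeled product read by fluorescence, giving percent inhibition.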"}, "[2]": {"tested_on": "p55 Processing in vVk-1 infected CV-1 Cells", "test": "CV-1 Cell Assay: inhibition of p55 processing in vVK-1 infected CV-1 cells (p24 levels)", "format": "cell-based", "conditions": "Cercopithecidae, CV-1, read-out: CV-1 Cell Assay % Inhib", "description": "Inhibition of p55 Processing in vVk-1 infected CV-1 Cells. CV-1 cells are seeded at 2×10^5 cells per well in 24-well Costar dishes and infected 4 to 6 hours later with vVK-1 at 5 plaque-forming units (PFU) per cell. Each compound is dissolved in Dulbecco's Modified Eagles medium (DMEM) containing 2.5% fetal bovine serum and is added to duplicate wells at the indicated final concentration 2 hours after virus addition. After 24 hours, the culture medium is removed and the monolayer washed with 1 mL of phosphate buffered saline (PBS), and the cells lysed by the addition of 0.1 mL of loading buffer (62.5 mM Tris (hydroxymethyl) aminomethane (Tris), pH 6.8, 2.3% sodium dodecyl sulfate (SDS), 5% β-mercaptoethanol, and 10% glycerol). The cell lysates are collected individually, placed in boiling water for 3 minutes, and then 0.025 mL of each sample is subjected to electrophoresis on 12% SDS-polyacrylamide gels. The proteins are electroblotted onto nitrocellulose and analyzed by protein immunoblotting. The primary antibodies are sheep antibody to p24 (International Enzyme, Inc., Fallbrook, Calif.) and the secondary antibody is alkaline-phosphatase-conjugated rabbit antibody to sheep immunoglobulin G (Kirkegaard & Perry Laboratories, Gaithersburg, Md.). The levels of immunoreactive proteins are quantified by densitometry (Bio-Rad, Model 260) with the accompanying 1-D Analyst Software. Inhibition refers to the mean percent decrease in p24 levels determined from the duplicate drug-treated samples compared to the nondrug-treated controls. […] Val-Ile-Amp (also known as N-[1-(cyclohexylmethyl)-2,3-dihydroxy-5-methyl-4-[[[2-methyl-1-[[(2-pyridinylmethyl)amino]carbonyl]butyl]-amino]carbonyl]hexyl]-α-[[(1-naphthalenyloxy)acetyl]amino]-, [1S-[1R*(R*),2S*,3S*,4S*(1R*,2R*)]]-1H-imidazole-4-propanamide) (which was disclosed in International Publication Number WO 87/05302, published 11 Sep. 1987) was also determined in each experiment."}, "HIV-1 protease [3]": {"biological_target": "T1, HIV-1 protease", "test": "biochemical", "conditions": "read-out: HIV-1 FITC KI", "procedure,_shortened": "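Ki from two-fold serial inhibitor dilutions (24–48 concentrations) with 40 nM HIV-1 protease stock and 200 μM substrate stock, 90 min at room temperature; stopped with avidin beads. Reference inhibitor run in parallel; Ki by nonlinear least-squares fit.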"}, "HIV-1IIIB": {"tested_on": "HIV-1IIIB", "test": "inhibition of retroviral replication in HIV-1IIIB infected human T-cell lines (MT4 and H9)", "format": "cell-based", "conditions": "e.g.", "description": "Several compounds of the present invention, such as N-[3-[cyclopropyl(5,6,7,8,9,10-hexahydro-4-hydroxy-2-oxo-2H-cycloocta[b]pyran-3-yl)methyl]phenyl]-4-fluorobenzenesulfonamide and 4-cyano-N-[3-[cyclopropyl(5,6,7,8,9,10-hexahydro-4-hydroxy-2-oxo-2H-cycloocta[b]pyran-3-yl)methyl]phenyl]-benzenesulfonamide were tested in known human cell lines, such as human T-cell lines, e.g., MT4 and H9, which were infected with HIV-1IIIB, and certain of these compounds were further tested in peripheral blood mononuclear cells (PBMC), which were infected with HIV-1JRCSF (a clinical isolate)."}, "HIV protease": {"tested_on": "HIV protease", "conditions": "cited from earlier work"}}, "note": "pIC50, pKi: −log10 of the molar value. Values joined by “and” are separate entries in the source; they are usually repeats but may differ in a detail not shown here. Equal entries are not always repeated. Square brackets hold non-standard residues; d marks the D form. Peptide text beside a SMILES is read from it. * marks the point of attachment. Sta = CC(C)C[C@H](N)[C@@H](O)CC(=O)O; Isovaleryl = CC(C)CC(=O)*"}
{"smiles": "O=c1cc(O)c2ccccc2o1", "note": "[4-hydroxy-coumarin]", "values": [{"measurement": "effect on HIV-1 replication and viral transmission", "setting": "HIV-1", "value": "inhibitory effect"}]}
{"smiles": "Cc1cn([C@H]2C[C@H](N=[N+]=[N-])[C@@H](CO)O2)c(=O)[nH]c1=O", "note": "[AZT, 3'-azido-3'-deoxy-thymidine]", "values": [{"measurement": "clinical effect in HIV infection/AIDS", "setting": "HIV; humans", "value": "decrease the mortality and frequency of opportunistic infections associated with AIDS"}]}
{"smiles": "CCCC(c1ccccc1)c1c(O)c2ccccc2oc1=O", "note": "(centres unmarked) [Example 10, 4-Hydroxy-3-(1-phenylbutyl)-coumarin]", "values": [{"measurement": "pIC50", "setting": "HIV-1 protease [1]", "value": 5.77}, {"measurement": "inhibition at 0.098 µM", "setting": "HIV-1 protease [1]", "value": "< 10", "unit": "%"}, {"measurement": "inhibition at 0.196 µM", "setting": "HIV-1 protease [1]; read-out: HIV-1 Protease % Inhib, dose 0.196 uM", "value": "< 10", "unit": "%"}, {"measurement": "inhibition at 0.78 µM", "setting": "HIV-1 protease [1]", "value": 33.2, "unit": "%"}, {"measurement": "inhibition at 1.56 µM", "setting": "HIV-1 protease [1]", "value": 53.6, "unit": "%"}, {"measurement": "inhibition at 12.5 µM", "setting": "HIV-1 protease [1]", "value": 91.5, "unit": "%"}, {"measurement": "inhibition at 25 µM", "setting": "HIV-1 protease [1]", "value": 88, "unit": "%"}, {"measurement": "inhibition at 50 µM", "setting": "HIV-1 protease [1]", "value": 102, "unit": "%"}, {"measurement": "inhibition at 100 µM", "setting": "HIV-1 protease [1]", "value": 109, "unit": "%"}, {"measurement": "inhibition at 100 µM", "setting": "[2]", "value": 0, "unit": "%"}, {"measurement": "inhibition at 300 µM", "setting": "[2]", "value": 57, "unit": "%"}]}
{"smiles": "CCCCC(c1ccccc1)c1c(O)c2ccccc2oc1=O", "note": "(centres unmarked) [Example 11, 4-Hydroxy-3-(1-phenylpentyl)-coumarin]", "values": [{"measurement": "pIC50", "setting": "HIV-1 protease [1]", "value": 5.72}, {"measurement": "inhibition at 0.098 µM", "setting": "HIV-1 protease [1]", "value": "< 10", "unit": "%"}, {"measurement": "inhibition at 0.195 µM", "setting": "HIV-1 protease [1]; read-out: HIV-1 Protease % Inhib, dose 0.195 uM", "value": "< 10", "unit": "%"}, {"measurement": "inhibition at 0.39 µM", "setting": "HIV-1 protease [1]; read-out: HIV-1 Protease % Inhib, dose 0.390 uM", "value": 19.2, "unit": "%"}, {"measurement": "inhibition at 0.78 µM", "setting": "HIV-1 protease [1]", "value": 27.1, "unit": "%"}, {"measurement": "inhibition at 1.56 µM", "setting": "HIV-1 protease [1]", "value": 58.1, "unit": "%"}, {"measurement": "inhibition at 3.13 µM", "setting": "HIV-1 protease [1]; read-out: HIV-1 Protease % Inhib, dose 3.130 uM", "value": 63.1, "unit": "%"}, {"measurement": "inhibition at 6.25 µM", "setting": "HIV-1 protease [1]; read-out: HIV-1 Protease % Inhib, dose 6.250 uM", "value": 70.4, "unit": "%"}, {"measurement": "inhibition at 12.5 µM", "setting": "HIV-1 protease [1]", "value": 82, "unit": "%"}, {"measurement": "inhibition at 25 µM", "setting": "HIV-1 protease [1]", "value": 95.8, "unit": "%"}, {"measurement": "inhibition at 50 µM", "setting": "HIV-1 protease [1]", "value": 90.7, "unit": "%"}, {"measurement": "inhibition at 100 µM", "setting": "HIV-1 protease [1]", "value": 105, "unit": "%"}, {"measurement": "inhibition at 200 µM", "setting": "HIV-1 protease [1]; read-out: HIV-1 Protease % Inhib, dose 200.000 uM", "value": 107, "unit": "%"}, {"measurement": "inhibition at 100 µM", "setting": "[2]", "value": 64, "unit": "%"}, {"measurement": "inhibition at 300 µM", "setting": "[2]", "value": 78, "unit": "%"}]}
{"smiles": "N#Cc1ccc(S(=O)(=O)Nc2cccc(C(c3c(O)c4c(oc3=O)CCCCCC4)C3CC3)c2)cc1", "note": "(centres unmarked) [Example 262, 4-Cyano-N-[3-[cyclopropyl(5,6,7,8,9,10-hexahydro-4-hydroxy-2-oxo-2H-cycloocta[b]pyran-3-yl)methyl]phenyl]-benzenesulfonamide]", "values": [{"measurement": "HIV-1 Protease % Inhib", "setting": "HIV-1 protease [1]; dose 0.123 uM", "value": 83.32, "unit": "%"}, {"measurement": "HIV-1 Protease % Inhib", "setting": "HIV-1 protease [1]; dose 3.300 uM", "value": 121.87, "unit": "%"}, {"measurement": "HIV-1 Protease % Inhib", "setting": "HIV-1 protease [1]; dose 10.000 uM", "value": 119.5, "unit": "%"}, {"measurement": "inhibition at 0.37 µM", "setting": "HIV-1 protease [1]", "value": 103, "unit": "%"}, {"measurement": "inhibition at 1.1 µM", "setting": "HIV-1 protease [1]", "value": 113, "unit": "%"}, {"measurement": "inhibition at 30 µM", "setting": "HIV-1 protease [1]", "value": 115, "unit": "%"}, {"measurement": "pKi", "setting": "HIV-1 protease [3]", "value": "8.85 and 9.36 and 9.00 and 9.22"}, {"measurement": "inhibition of retroviral replication", "setting": "HIV-1IIIB", "value": "found to inhibit retrovital replication"}]}
{"smiles": "O=c1oc2c(c(O)c1C(c1cccc(NS(=O)(=O)c3ccc(F)cc3)c1)C1CC1)CCCCCC2", "note": "(centres unmarked) [Example 268, N-[3-[Cyclopropyl(5,6,7,8,9,10-hexahydro-4-hydroxy-2-oxo-2H-cycloocta[b]pyran-3-yl)methyl]phenyl]-4-fluoro-benzenesulfonamide]", "values": [{"measurement": "inhibition at 0.123 µM", "setting": "HIV-1 protease [1]; read-out: HIV-1 Protease % Inhib, dose 0.123 uM", "value": 71.2, "unit": "%"}, {"measurement": "inhibition at 0.37 µM", "setting": "HIV-1 protease [1]", "value": 88, "unit": "%"}, {"measurement": "inhibition at 1.1 µM", "setting": "HIV-1 protease [1]", "value": 96.2, "unit": "%"}, {"measurement": "inhibition at 3.3 µM", "setting": "HIV-1 protease [1]; read-out: HIV-1 Protease % Inhib, dose 3.300 uM", "value": 97.6, "unit": "%"}, {"measurement": "inhibition at 10 µM", "setting": "HIV-1 protease [1]; read-out: HIV-1 Protease % Inhib, dose 10.000 uM", "value": 101, "unit": "%"}, {"measurement": "inhibition at 30 µM", "setting": "HIV-1 protease [1]", "value": 101, "unit": "%"}, {"measurement": "inhibition of retroviral replication", "setting": "HIV-1IIIB", "value": "found to inhibit retrovital replication"}]}
{"smiles": "CC(C)CC(=O)N[C@H](C(=O)N[C@H](C(=O)N[C@@H](CC(C)C)[C@@H](O)CC(=O)N[C@@H](C)C(=O)N[C@@H](CC(C)C)[C@@H](O)CC(=O)O)C(C)C)C(C)C", "note": "[Pepstatin A] (Isovaleryl-VV[Sta]A[Sta]-OH)", "values": [{"measurement": "HIV protease inhibition", "setting": "HIV protease", "value": "inhibitor of HIV-I protease"}]}
{"smiles": "Nc1ccn([C@H]2CC[C@@H](CO)O2)c(=O)n1", "note": "[ddC]", "values": [{"measurement": "limiting toxicity", "setting": "HIV; humans", "value": "peripheral neuropathy which is reversible at low doses"}]}
{"smiles": "O=c1[nH]cnc2c1ncn2[C@H]1CC[C@@H](CO)O1", "note": "[ddI]", "values": [{"measurement": "effect on liver", "setting": "HIV; human, in vivo", "value": "stimulate hepatic glycolysis leading to irreversible liver damage"}, {"measurement": "limiting toxicity", "setting": "HIV; humans", "value": "peripheral neuropathy and pancreatitis"}]}
{"smiles": "O=c1ccc2ccc(O)cc2o1", "note": "[umbelliferone]", "values": [{"measurement": "effect on HIV-1 replication and viral transmission", "setting": "HIV-1", "value": "inhibitory effect"}]}
{"smiles": "CC(=O)CC(c1ccccc1)c1c(O)c2ccccc2oc1=O", "note": "(stereo not drawn) [warfarin, 3-α-phenyl-β-acetylethyl-4-hydroxycoumarin]", "values": [{"measurement": "HIV protease inhibition", "setting": "HIV protease", "value": "displayed HIV protease inhibition"}, {"measurement": "effect on HIV-1 replication and viral transmission", "setting": "HIV-1", "value": "inhibitory effect"}]}
